This note sets out measurements from PubChem BioAssay AID1645868 (Buhrlage Lab, Dana-Farber Cancer Institute and Novartis …, 2021).

Structures are written as SMILES. The source made the active and inactive calls.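 How the source made its calls: active means maximal percent inhibition of the deubiquitinase OTUD3 of at least 30% across the tested doses; inactive means the rest.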

The target of the assay is OTU domain-containing protein 3 (Homo sapiens) (UniProt Q5T2D3). In words: Validation of screening hits, potency titration, in vitro enzymatic, OTU domain-containing protein 3 DUB inhibitors (AID 1645868). The settings on record: purified OTUD3, ubiquitin-rhodamine cleavage fluorescence, 2 h.
Sequence of OTU domain-containing protein 3 (Homo sapiens) (Q5T2D3 whole entry, looked up, the tested form may be a part): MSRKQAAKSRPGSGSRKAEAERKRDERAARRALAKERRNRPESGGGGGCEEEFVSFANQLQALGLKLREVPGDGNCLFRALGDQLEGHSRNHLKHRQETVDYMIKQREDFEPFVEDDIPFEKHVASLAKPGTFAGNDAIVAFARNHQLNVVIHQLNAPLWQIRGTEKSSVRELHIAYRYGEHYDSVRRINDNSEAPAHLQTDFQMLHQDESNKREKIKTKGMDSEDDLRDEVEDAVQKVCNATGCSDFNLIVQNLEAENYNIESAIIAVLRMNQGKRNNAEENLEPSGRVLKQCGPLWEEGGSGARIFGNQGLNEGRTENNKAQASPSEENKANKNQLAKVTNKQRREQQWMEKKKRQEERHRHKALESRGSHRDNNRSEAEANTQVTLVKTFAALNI

As a reminder, the IC50 is the concentration at which inhibition is half-maximal. On to `COc1ccc(C(=O)Nc2ccc(S(=O)(=O)N3CCCCC3)cc2)cc1`, for which the IC50 was > 50 µM (inactive).
To `Cc1ccc(CNC(=O)CCCn2c(=O)c3sccc3n(CC(=O)Nc3cc(Cl)ccc3C)c2=O)cc1` belongs 9.57 µM.
Turning to `O=C(/C=C/c1ccco1)c1cccc([N+](=O)[O-])c1`, the IC50 was 23.2 µM.
As for `NC(=O)c1nc(-c2cccnc2)nc2c1[nH]c(=O)n2-c1ccc2c(c1)OCO2`, the figure is > 50 µM (inactive).
To `COc1cccc(CCNC(=O)CCn2c(=O)c(C)nc3cc(C)c(C)cc32)c1` belongs > 50 µM (inactive); to `Cc1ccc(Nc2nc(NCCc3ccccc3)nc3c2cnn3C)cc1`, > 50 µM (inactive); to `CCC1=C(c2ccc(C)cc2)S(=O)(=O)NC1=NCC(=O)NC(C)c1ccccc1` (configuration not stated), 20.5 µM.
To `CC1=C(c2ccc(C)c(C)c2)S(=O)(=O)NC1=NCC(=O)NCCc1ccc(C)cc1` belongs > 50 µM (inactive); to `COc1ccc(CCNC(=O)CCCn2c(=O)c3ccccc3n(CC(=O)OCc3ccccc3)c2=O)cc1OC`, 21.8 µM.
`COc1cccc(/C=C/C(=O)Nc2ccc(C)c(Cl)c2)c1`: the IC50 was 45.5 µM.
To `COc1cc2c(cc1OC)-c1cc(Nc3ccc(Br)cc3)nc(=O)n1CC2` belongs 8.29 µM.
Consider `COc1cccc(NC(=O)CSc2nnc(-c3cc4cccc(OC)c4o3)n2C)c1`, for which the IC50 is 35.9 µM.
As for `Cc1cc(Nc2ccc(C(=O)NCc3ccco3)cc2)n2nc(-c3cccnc3)nc2n1`, the IC50 was 37.1 µM.
To `O=C(NCc1ccccc1)Nc1cccc2ccccc12` belongs 40.3 µM.
As for `O=C(COc1ccc(Cl)cc1)Nc1noc(-c2ccccc2)n1`, the figure is 29.2 µM; as for `Cn1c2ccccc2c2ncn(Cc3ccc(F)cc3)c(=O)c21`, > 50 µM (inactive); as for `Cc1cccc(C(=O)Nc2ccccc2Sc2nc3c(c(=O)n(C)c(=O)n3C)n2C)c1`, > 50 µM (inactive).
To `O=C(Cn1c(=O)n(Cc2ccc3c(c2)OCO3)c(=O)c2ncccc21)c1ccc(Cl)cc1` belongs 33.9 µM.
On to `Cn1cc2cccc(NC(=O)c3ccc(F)cc3)c2n1`, for which the IC50 is > 50 µM (inactive).
Take `COC(=O)c1ccc(NC(=O)CSc2nnc(-c3ccc(O)cc3)n2Cc2ccco2)cc1`: the IC50 is > 50 µM (inactive).
To `CC1OC2CC(O)C1(O)C1=C2C(O)=C(C(N)=O)C(=N)C1=O` (configuration not stated) belongs > 50 µM (inactive).
As for `O=S(=O)(c1cccc2cccnc12)N(CCc1ccccc1)C1CCN(CCc2ccc(Cl)cc2)CC1`, the figure is > 50 µM (inactive); as for `O=C(NCc1ccccc1Cl)c1ccc2cn[nH]c2c1`, > 50 µM (inactive).
To `O=C(OC1CSc2nc3ccccc3n2C1)c1ccc([N+](=O)[O-])o1` (configuration not stated) belongs 25.7 µM; to `COc1ccccc1C(=O)N1CCC(S(=O)(=O)c2ccc(-c3ccco3)cc2)CC1`, > 50 µM (inactive).
With `CC(=O)c1cccc(NC(=O)c2ccc(-c3csc(C)n3)cc2)c1`, the IC50 is > 50 µM (inactive).
As for `Cc1cnnn1-c1ccc(C(=O)Nc2cc(Cl)ccc2Cl)cc1`, the figure is > 50 µM (inactive); as for `Cc1cc(C)c(NC(=O)CSc2nc3nccnc3c(=O)n2Cc2ccccc2Cl)c(C)c1`, > 50 µM (inactive).
As for `CCn1cc2c(n1)c(=O)n(Cc1ccc(C)cc1)c(=O)n2CC(=O)Nc1ccc(F)cc1`, the figure is 22.7 µM; as for `CCn1cnc2ccc(C(=O)NC3CC3)cc2c1=O`, > 50 µM (inactive); as for `O=S(c1ccc2ccccc2c1)c1cnns1` (configuration not stated), > 50 µM (inactive).
To `CCC(=O)OCc1cnc(C)c2oc(=O)c(-c3nc(-c4ccccc4)no3)cc12` belongs > 50 µM (inactive); to `CCN(Cc1ccccc1)S(=O)(=O)c1ccc(C(=O)Nc2ccc3c(c2)OCCO3)cc1`, > 50 µM (inactive).
Regarding `Cc1ccc(C(=O)NCc2ccc(C(=O)Nc3ccc(C)c(C)c3)o2)cc1`, the IC50 was > 50 µM (inactive).
To `CC(=O)Nc1ccc(O)c(-c2nc3cc(C)ccc3o2)c1` belongs > 50 µM (inactive).
To `c1csc(-c2nc(Nc3ccc4c(c3)CCC4)c3ccccc3n2)c1` belongs > 50 µM (inactive); to `COc1ccc(N2CCN(Cc3nnnn3Cc3ccc4c(c3)OCO4)CC2)cc1`, > 50 µM (inactive); to `Cc1ccc(C(=O)NCCc2nc(-c3ccc4c(c3)OCO4)n[nH]2)cc1F`, > 50 µM (inactive).
With `Cc1c(Cl)cccc1NC(=O)Cn1ccc2ccccc2c1=O`, the IC50 was > 50 µM (inactive).
To `O=C(NCc1ccc2c(c1)OCO2)c1cc(-c2cc(Cl)ccc2O)n[nH]1` belongs 40.7 µM.
As for `O=C(Cn1c(-c2ccccc2)ncc(C(=O)NC2CC2)c1=O)Nc1ccccc1`, the IC50 is 25.5 µM.
As for `COc1cccc(N2CCN(C(=O)Nc3ccc4c(c3)NC(=O)CO4)CC2)c1`, the figure is 22.4 µM; as for `COc1ccc(NC(=O)c2ccc(-n3nnnc3SC)cc2)cc1Cl`, > 50 µM (inactive); as for `O=C(c1ccnn1-c1ccc2ccc(-c3ccncc3)cn12)N1CCCC1`, > 50 µM (inactive).
To `COc1ccc(C(=O)NCC(c2ccc3c(c2)CCCN3C)N2CCCC2)cc1` (configuration not stated) belongs > 50 µM (inactive).
As for `CC(C)Cc1nc2sc3c(NCc4ccccc4)ncnc3c2c2c1COC(C)(C)C2`, the figure is 31.9 µM; as for `CCOC(=O)c1ccc(-n2c(=O)c(C#N)cc3c(=O)n4ccccc4nc32)cc1`, > 50 µM (inactive); as for `Cc1ccc(C)c(NC(=O)CSc2nnc(-c3ccccn3)n2Cc2ccco2)c1`, > 50 µM (inactive).
Regarding `Cc1sc2ncnc(OCc3ccc(F)cc3Cl)c2c1C`, the IC50 is > 50 µM (inactive).
As for `CC(C)(C)c1ccc(-c2nnc3n2-c2ccccc2SC3)cc1`, the figure is > 50 µM (inactive); as for `CCOc1cc(N2CCOCC2)c(OCC)cc1NC(=O)c1cc(-c2ccncc2)nc2ccccc12`, > 50 µM (inactive); as for `CC(C)(C)c1ccc(Cn2nnc3c(=O)[nH]c(C4CCN(S(=O)(=O)c5ccc(S(=O)(=O)NC6CC6)cc5)CC4)nc32)cc1`, > 50 µM (inactive).
Consider `O=C(CNS(=O)(=O)c1ccc(F)cc1)N1CCCC(c2nnc3ccccn23)C1` (configuration not stated), for which the IC50 is > 50 µM (inactive).
In the case of `COc1ccc(/C=C/C(=O)Nc2c3c(nc4c2CCC4)CCCC3)cc1`, the 50% inhibitory concentration (IC50) is 23.6 µM.
For `O=C(CCCn1c(=O)c2ccccc2n(CC(=O)NCc2ccccc2Cl)c1=O)NCc1ccc2c(c1)OCO2`, the IC50 is 3.31 µM.
To `Cn1c2ccccc2c(=O)c2c(=O)n(Cc3ccccc3)c(-c3ccccc3F)nc21` belongs 0.33 µM; to `Cc1ccc(-c2noc(-c3nnc(SCC(=O)NC4CCCC4)n3C)n2)cc1`, > 50 µM (inactive); to `COc1ccc(CCNC(=O)c2ccc3ccccc3c2)cc1OC`, > 50 µM (inactive).
To `CC(C)(C)C(=O)Nc1ccc(SCc2nnc(-c3ccccc3)o2)cc1` belongs > 50 µM (inactive).
To `O=C(COc1cccc2c1CCN(Cc1cccnc1)C2=O)Nc1ccc2c(c1)OCCO2` belongs > 50 µM (inactive).
With `CC(Nc1ncnc2c1sc1nc(N3CCOCC3)c3c(c12)CCC3)c1ccccc1` (configuration not stated), the IC50 was > 50 µM (inactive).
As for `CCOc1ccccc1NC(=O)Cn1c(=O)n(CCCC(=O)NCc2ccc(C)cc2)c(=O)c2sccc21`, the figure is 2.78 µM.
